Measured values: US10377770B2 (Novartis AG, priority 2015, dated 2019)

What follows are molecules tested against C-Raf FL (full length CRAF with Y340E and Y341E activating mutations, co-expressed with h14-3-3 zeta) (Homo sapiens (Human), UniProt P04049, Y340E/Y341E) (assay: In vitro Raf activity determination, AlphaScreen p-MEK readout, c-Raf (C-Raf FL)). Settings: c-Raf approximately 4 nM, ATP 1 μM, pre-incubation 60 minutes, reaction 1 hour.
Assay type: biochemical
In short: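 Full-length C-Raf (~4 nM) pre-incubated 60 min at room temperature with compound and kinase-dead biotinylated MEK1 (~10 nM) in Tris pH 7.5, 15 mM MgCl2, BSA, DTT. Reaction started with 1 μM ATP and run 1 h at room temperature. Phospho-MEK detected by AlphaScreen with anti-p-MEK antibody.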

Chain of C-Raf FL (full length CRAF with Y340E and Y341E activating mutations, co-expressed with h14-3-3 zeta) (P04049 whole entry Y340E/Y341E): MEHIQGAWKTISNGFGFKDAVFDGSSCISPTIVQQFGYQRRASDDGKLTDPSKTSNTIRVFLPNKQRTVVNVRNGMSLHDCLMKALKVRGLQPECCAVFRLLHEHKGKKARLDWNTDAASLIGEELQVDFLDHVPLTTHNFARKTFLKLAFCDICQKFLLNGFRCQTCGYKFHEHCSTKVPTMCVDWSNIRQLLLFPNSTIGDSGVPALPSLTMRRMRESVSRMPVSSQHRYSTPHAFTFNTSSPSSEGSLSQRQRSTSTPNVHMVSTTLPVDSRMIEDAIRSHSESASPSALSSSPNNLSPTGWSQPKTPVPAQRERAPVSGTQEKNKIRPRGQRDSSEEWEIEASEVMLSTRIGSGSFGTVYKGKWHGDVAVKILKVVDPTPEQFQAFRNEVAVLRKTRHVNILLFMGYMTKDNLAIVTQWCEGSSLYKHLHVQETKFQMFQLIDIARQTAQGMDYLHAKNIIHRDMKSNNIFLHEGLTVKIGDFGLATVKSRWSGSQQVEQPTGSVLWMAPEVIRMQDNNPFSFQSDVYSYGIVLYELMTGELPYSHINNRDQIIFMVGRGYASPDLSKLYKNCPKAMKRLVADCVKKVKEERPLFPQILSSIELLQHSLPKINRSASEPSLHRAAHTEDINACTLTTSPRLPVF
Chain of C-Raf FL (full length CRAF with Y340E and Y341E activating mutations, co-expressed with h14-3-3 zeta) (P63104 whole entry partner): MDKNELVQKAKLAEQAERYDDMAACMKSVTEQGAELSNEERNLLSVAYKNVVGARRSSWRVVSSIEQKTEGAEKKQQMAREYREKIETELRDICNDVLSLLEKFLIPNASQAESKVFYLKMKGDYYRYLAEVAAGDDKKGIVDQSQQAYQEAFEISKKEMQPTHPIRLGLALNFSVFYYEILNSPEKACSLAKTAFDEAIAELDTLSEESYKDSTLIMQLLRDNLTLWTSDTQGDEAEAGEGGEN

How did the IC50 turn out when `Cc1ccc(NC(=O)c2ccnc(C(F)(F)F)c2)cc1-c1ccc2c(c1)N1CCOC[C@H]1[C@](F)(CO)C2` [Example 381, N-(3-((4aS,5S)-5-fluoro-5-(hydroxymethyl)-1,2,4,4a,5,6-hexahydro-[1,4]oxazino[4,3-a]quinolin-9-yl)-4-methylphenyl)-2-(trifluoromethyl)isonicotinamide] was run?
The IC50 was 0.3 nM.

How did the IC50 turn out when `Cc1ccc(NC(=O)c2ccnc(C(F)(F)F)c2)cc1-c1ccc2c(c1)N1CCOC[C@H]1[C@](F)(CO)C2` [Example 382, N-(3-((4aS,5S)-5-fluoro-5-(hydroxymethyl)-1,2,4,4a,5,6-hexahydro-[1,4]oxazino[4,3-a]quinolin-9-yl)-4-methylphenyl)-2-(trifluoromethyl)isonicotinamide] was run?
The IC50 was 0.2 nM.

Which IC50 does the source give for `Cc1ncc(NC(=O)c2cccc(C(F)(F)F)c2)cc1-c1ccc2c(c1)N1CCOC[C@H]1[C@](F)(CO)C2` [Example 383, N-(5-((4aS,5S)-5-fluoro-5-(hydroxymethyl)-1,2,4,4a,5,6-hexahydro-[1,4]oxazino[4,3-a]quinolin-9-yl)-6-methylpyridin-3-yl)-3(trifluoromethyl)benzamide] here?
Its IC50 is 1 nM.

How did the IC50 turn out when `Cc1ccc(NC(=O)c2cnnc(C(F)(F)F)c2)cc1-c1ccc2c(c1)N1CCOC[C@H]1[C@](F)(CO)C2` [Example 384, N-(3-((4aS,5S)-5-fluoro-5-(hydroxymethyl)-1,2,4,4a,5,6-hexahydro-[1,4]oxazino[4,3-a]quinolin-9-yl)-4-methylphenyl)-6-(trifluoromethyl)pyridazine-4-carboxamide] was run?
Its IC50 is 0.2 nM.

For `Cc1ccc(NC(=O)c2ccnc(C(F)(F)F)c2F)cc1-c1ccc2c(c1)N1CCOC[C@H]1[C@](F)(CO)C2` [Example 385, 3-fluoro-N-(3-((4aS,5S)-5-fluoro-5-(hydroxymethyl)-1,2,4,4a,5,6-hexahydro-[1,4]oxazino[4,3-a]quinolin-9-yl)-4-methylphenyl)-2-(trifluoromethyl)isonicotinamide], which IC50 is on record?
The IC50 was 0.6 nM.

How did the IC50 turn out when `Cc1ccc(NC(=O)c2ccnc(C(C)(C)F)c2)cc1-c1ccc2c(c1)N1CCOC[C@H]1[C@](F)(CO)C2` [Example 386, N-(3-((4aS,5S)-5-fluoro-5-(hydroxymethyl)-1,2,4,4a,5,6-hexahydro-[1,4]oxazino[4,3-a]quinolin-9-yl)-4-methylphenyl)-2-(2-fluoropropan-2-yl)isonicotinamide] was run?
The IC50 was 0.3 nM.

`Cc1ccc(NC(=O)c2cncc(C(F)(F)F)c2)cc1-c1ccc2c(c1)N1CCOC[C@H]1[C@](F)(CO)C2` [Example 387, N-(3-((4aS,5S)-5-fluoro-5-(hydroxymethyl)-1,2,4,4a,5,6-hexahydro-[1,4]oxazino[4,3-a]quinolin-9-yl)-4-methylphenyl)-5-(trifluoromethyl)nicotinamide] was tested. Which IC50 did it give?
The IC50 was 0.3 nM.

`Cc1ccc(NC(=O)c2cc(N)nc(C(F)(F)F)c2)cc1-c1ccc2c(c1)N1CCOC[C@H]1[C@](F)(CO)C2` [Example 390, 2-amino-N-(3-((4aS,5S)-5-fluoro-5-(hydroxymethyl)-1,2,4,4a,5,6-hexahydro-[1,4]oxazino[4,3-a]quinolin-9-yl)-4-methylphenyl)-6-(trifluoromethyl)isonicotinamide] was tested. Which IC50 did it give?
Its IC50 is 1.7 nM.

`Cc1ccc(NC(=O)c2cc(Cl)nc(C(F)(F)F)c2)cc1-c1ccc2c(c1)N1CCOC[C@H]1[C@](F)(CO)C2` [Example 391, 2-chloro-N-(3-((4aS,5S)-5-fluoro-5-(hydroxymethyl)-1,2,4,4a,5,6-hexahydro-[1,4]oxazino[4,3-a]quinolin-9-yl)-4-methylphenyl)-6-(trifluoromethyl)isonicotinamide] was tested. Which IC50 did it give?
The IC50 was 6.8 nM.

With `Cc1ccc(NC(=O)c2cc(C(C)(C)N)cc(C(F)(F)F)c2)cc1-c1ccc2c(c1)N1CCOC[C@H]1[C@](F)(CO)C2` [Example 392, 3-(2-aminopropan-2-yl)-N-(3-((4aS,5S)-5-fluoro-5-(hydroxymethyl)-1,2,4,4a.5,6-hexahydro-[1,4]oxazino[4,3-a]quinolin-9-yl)-4-methylphenyl)-5-(trifluoromethyl)benzamide] as the molecule, how does the IC50 read?
Its IC50 is 3.4 nM.

Which IC50 does the source give for `Cc1ccc(NC(=O)c2cncc(C(F)(F)F)c2)cc1-c1ccc2c(c1)N1CCOC[C@H]1[C@](F)(CO)C2` [Example 393, N-(3-((4aS,5S)-5-fluoro-5-(hydroxymethyl)-1,2,4,4a,5,6-hexahydro-[1,4]oxazino[4,3-a]quinolin-9-yl)-4-methylphenyl)-5-(trifluoromethyl)nicotinamide] here?
Its IC50 is 0.1 nM.

For `Cc1ncc(NC(=O)c2cccc(C(F)(F)F)c2)cc1-c1ccc2c(c1)N1CCOC[C@H]1[C@@](F)(CO)C2` [Example 394, N-(5-((4aS,5R)-5-fluoro-5-(hydroxymethyl)-1,2,4,4a,5,6-hexahydro-[1,4]oxazino[4,3-a]quinolin-9-yl)-6-methylpyridin-3-yl)-3-(trifluoromethyl)benzamide], which IC50 is on record?
The IC50 was 0.3 nM.

Which IC50 does the source give for `Cc1ccc(NC(=O)c2ccnc(C(F)(F)F)c2F)cc1-c1ccc2c(c1)N1CCOC[C@H]1[C@@](F)(CO)C2` [Example 395, 3-fluoro-N-(3-((4aS,5R)-5-fluoro-5-(hydroxymethyl)-1,2,4,4a,5,6-hexahydro-[1,4]oxazino[4,3-a]quinolin-9-yl)-4-methylphenyl)-2-(trifluoromethyl)isonicotinamide] here?
The IC50 was 0.2 nM.

With `Cc1ccc(NC(=O)c2ccnc(C(F)(F)F)c2)cc1-c1ccc2c(c1)N1CCOC[C@H]1[C@@](F)(CO)C2` [Example 396, N-(3-((4aS,5R)-5-fluoro-5-(hydroxymethyl)-1,2,4,4a,5,6-hexahydro-[1,4]oxazino[4,3-a]quinolin-9-yl)-4-methylphenyl)-2-(trifluoromethyl)isonicotinamide] as the molecule, how does the IC50 read?
The IC50 was 0.2 nM.

How did the IC50 turn out when `Cc1ccc(NC(=O)c2ccnc(C(F)(F)F)c2)cc1-c1ccc2c(c1)N1CCOC[C@@H]1[C@](F)(CO)C2` [Example 399, N-(3-((4aR,5S)-5-fluoro-5-(hydroxymethyl)-1,2,4,4a,5,6-hexahydro-[1,4]oxazino[4,3-a]quinolin-9-yl)-4-methylphenyl)-2-(trifluoromethyl)isonicotinamide] was run?
Its IC50 is 0.3 nM.

With `Cc1ccc(NC(=O)c2ccnc(C(C)(C)F)c2)cc1-c1ccc2c(c1)N1CCOC[C@@H]1[C@](F)(CO)C2` [Example 400, N-(3-((4aR,5S)-5-fluoro-5-(hydroxymethyl)-1,2,4,4a,5,6-hexahydro-[1,4]oxazino[4,3-a]quinolin-9-yl)-4-methylphenyl)-2-(2-fluoropropan-2-yl)isonicotinamide] as the molecule, how does the IC50 read?
The IC50 was 0.1 nM.

How did the IC50 turn out when `Cc1ccc(NC(=O)c2ccnc(C(C)(C)C#N)c2)cc1-c1ccc2c(c1)N1CCOC[C@@H]1[C@](F)(CO)C2` [Example 401, 2-(2-cyanopropan-2-yl)-N-(3-((4aR,5S)-5-fluoro-5-(hydroxymethyl)-1,2,4,4a,5,6-hexahydro-[1,4]oxazino[4,3-a]quinolin-9-yl)-4-methylphenyl)isonicotinamide] was run?
Its IC50 is 0.3 nM.

`Cc1ccc(NC(=O)c2cnnc(C(F)(F)F)c2)cc1-c1ccc2c(c1)N1CCOC[C@@H]1[C@](F)(CO)C2` [Example 403, N-(3-((4aR,5S)-5-fluoro-5-(hydroxymethyl)-1,2,4,4a,5,6-hexahydro-[1,4]oxazino[4,3-a]quinolin-9-yl)-4-methylphenyl)-6-(trifluoromethyl)pyridazine-4-carboxamide] was tested. Which IC50 did it give?
The IC50 was 0.1 nM.

`Cc1ncc(NC(=O)c2cccc(C(F)(F)F)c2)cc1-c1ccc2c(c1)N1CCOC[C@@H]1[C@@](CO)(CF)C2` [Example 406, N-(5-((4aS,5S)-5-(fluoromethyl)-5-(hydroxymethyl)-1,2,4,4a,5,6-hexahydro-[1,4]oxazino[4,3-a]quinolin-9-yl)-6-methylpyridin-3-yl)-3-(trifluoromethyl)benzamide] was tested. Which IC50 did it give?
The IC50 was 0.4 nM.

How did the IC50 turn out when `Cc1ccc(NC(=O)c2ccnc(C(C)(F)F)c2)cc1-c1ccc2c(c1)N1CCOC[C@@H]1[C@@](CO)(CF)C2` [Example 407, 2-(1,1-difluoroethyl)-N-(3-((4aS,5S)-5-(fluoromethyl)-5-(hydroxymethyl)-1,2,4,4a,5,6-hexahydro-[1,4]oxazino[4,3-a]quinolin-9-yl)-4-methylphenyl)isonicotinamide] was run?
The IC50 was 0.1 nM.

`Cc1ccc(NC(=O)c2ccnc(C(F)(F)F)c2)cc1-c1ccc2c(c1)N1CCOC[C@H]1[C@](CO)(CF)C2` [Example 408, N-(3-((4aR,5R)-5-(fluoromethyl)-5-(hydroxymethyl)-1,2,4,4a,5,6-hexahydro-[1,4]oxazino[4,3-a]quinolin-9-yl)-4-methylphenyl)-2-(trifluoromethyl)isonicotinamide] was tested. Which IC50 did it give?
Its IC50 is 0.7 nM.

How did the IC50 turn out when `Cc1ncc(NC(=O)c2cccc(C(F)(F)F)c2)cc1-c1ccc2c(c1)N1CCOC[C@H]1[C@](CO)(CF)C2` [Example 409, N-(5-((4aR,5R)-5-(fluoromethyl)-5-(hydroxymethyl)-1,2,4,4a,5,6-hexahydro-[1,4]oxazino[4,3-a]quinolin-9-yl)-6-methylpyridin-3-yl)-3-(trifluoromethyl)benzamide] was run?
Its IC50 is 0.4 nM.

Which IC50 does the source give for `Cc1ccc(NC(=O)c2ccnc(C(C)(F)F)c2)cc1-c1ccc2c(c1)N1CCOC[C@H]1[C@](CO)(CF)C2` [Example 410, 2-(1,1-difluoroethyl)-N-(3-((4aR,5R)-5-(fluoromethyl)-5-(hydroxymethyl)-1,2,4,4a,5,6-hexahydro-[1,4]oxazino[4,3-a]quinolin-9-yl)-4-methylphenyl)isonicotinamide] here?
The IC50 was 0.5 nM.

With `Cc1ccc(NC(=O)c2ccnc(C(C)(F)F)c2)cc1-c1cc2n(c(=O)c1)CC[C@H]1COCCN21` [Example 411, (S)-2-(1,1-difluoroethyl)-N-(4-methyl-3-(8-oxo-1,2,4,4a,5,6-hexahydro-8H-pyrido[2′,1′:2,3]pyrimido[6,1-c][1,4]oxazin-10-yl)phenyl)isonicotinamide] as the molecule, how does the IC50 read?
The IC50 was 0.2 nM.

How did the IC50 turn out when `Cc1ccc(NC(=O)c2ccnc(C(C)(F)F)c2)cc1-c1cc2n(c(=O)c1)CC[C@@H]1COCCN21` [Example 413, (R)-2-(1,1-difluoroethyl)-N-(4-methyl-3-(8-oxo-1,2,4,4a,5,6-hexahydro-8H-pyrido[2′,1′:2,3]pyrimido[6,1-c][1,4]oxazin-10-yl)phenyl)isonicotinamide] was run?
The IC50 was 0.2 nM.
